# Laboratory results as given in patent publication US20240140957A1, “BRIDGED COMPOUNDS AS KRAS G12D INHIBITOR AND DEGRADER AND THE USE THEREOF” (BeiGene Switzerland GmbH, priority 2021, published 2024).
# Biological target: GDP-loaded KRAS G12D (Homo sapiens, UniProt P01116, G12D)
# Assay: KRAS G12D Probe Displacement Assay
# Assay type: binding
# Settings: KRAS G12D 0.5 nM, biotinylated probe 2 4 nM; Table 6 letters; read-out: KRAS G12D Probe Displacement Assay IC50 (class)
# GDP-loaded KRAS G12D, sequence (P01116 1-188 isoform P01116-2 G12D): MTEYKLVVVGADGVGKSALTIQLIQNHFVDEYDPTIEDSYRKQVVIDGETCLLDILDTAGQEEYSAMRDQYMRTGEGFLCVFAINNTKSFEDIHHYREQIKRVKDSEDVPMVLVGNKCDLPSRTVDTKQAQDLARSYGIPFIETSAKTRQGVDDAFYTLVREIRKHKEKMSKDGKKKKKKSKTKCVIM
row,SMILES,IC50 [nM]
1,"Nc1nc2c(-c3c(C(F)(F)F)cc4c(N5CC6CCCC(C5)N6)nc(OC[C@@]56CCCN5C[C@H](F)C6)nc4c3F)ccc(F)c2s1 [Example E90, 4-(4-(3,9-diazabicyclo[3.3.1]nonan-3-yl)-8-fluoro-2-(((2R,7aS)-2-fluorotetrahydro-1H-pyrrolizin-7a(5H)-yl)methoxy)-6-(trifluoromethyl)quinazolin-7-yl)-7-fluorobenzo[d]thiazol-2-amine]",< 50
2,"Nc1nc2c(-c3c(C4CC4(F)F)cc4c(N5CC6CCC(C5)N6)nc(OC[C@@]56CCCN5C[C@H](F)C6)nc4c3F)ccc(F)c2s1 (stereo partly shown) [Example E91, 4-(4-(3,8-diazabicyclo[3.2.1]octan-3-yl)-6-(2,2-difluorocyclopropyl)-8-fluoro-2-((2-fluorotetrahydro-1H-pyrrolizin-7a(5H)-yl)methoxy)quinazolin-7-yl)-7-fluorobenzo[d]thiazol-2-amine]",< 50
3,"Nc1nc2c(-c3c(C(F)(F)F)cc4c(N5[C@@H]6CC[C@H]5C(NCCC(F)F)C6)nc(OC[C@@]56CCCN5C[C@H](F)C6)nc4c3F)ccc(F)c2s1 (stereo partly drawn) [Example E95, 4-(4-((1S,4R)-2-((3,3-difluoropropyl)amino)-7-azabicyclo [2.2.1]heptan-7-yl)-8-fluoro-2-(((2R,7As)-2-fluorotetrahydro-1H-pyrrolizin-7a(5H)-yl)methoxy)-6-(trifluoromethyl)quinazolin-7-yl)-7-fluorobenzo[d]thiazol-2-amine]",< 50
4,Nc1nc2c(-c3c(C(F)(F)F)cc4c(N5C6CNCC5COC6)nc(OC[C@@]56CCCN5C[C@H](F)C6)nc4c3F)ccc(F)c2s1 [Example E98],< 50
5,"CN(C)C(=O)CCNC1C[C@H]2CC[C@@H]1N2c1nc(OC[C@@]23CCCN2C[C@H](F)C3)nc2c(F)c(-c3ccc(F)c4sc(N)nc34)c(C(F)(F)F)cc12 (stereo partly drawn) [Example E99, 3-(((1S,4R)-7-(7-(2-amino-7-fluorobenzo[d]thiazol-4-yl)-8-fluoro-2-(((2R,7aS)-2-fluorotetrahydro-1H-pyrrolizin-7a(5H)-yl)methoxy)-6-(trifluoromethyl)quinazolin-4-yl)-7-azabicyclo [2.2.1]heptan-2-yl)amino)-N,N-dimethyl propanamide]",< 50
6,"N#Cc1c(N)sc2c(F)ccc(-c3c(C(F)(F)F)cc4c(N5CC6CCC(C5)N6)nc(OC[C@@]56CCCN5C[C@H](F)C6)nc4c3F)c12 [Example E104, 4-(4-(3,8-diazabicyclo[3.2.1]octan-3-yl)-8-fluoro-2-(((2R,7aS)-2-fluorotetrahydro-1H-pyrrolizin-7a(5H)-yl)methoxy)-6-(trifluoromethyl)quinazolin-7-yl)-2-amino-7-fluorobenzo[b]thiophene-3-carbonitrile]",< 50
7,"Oc1cc(Cl)c(C(F)(F)F)c(-c2c(Cl)cc3c(N4CC5CCC(C4)N5)nc(OC[C@@]45CCCN4C[C@H](F)C5)nc3c2F)c1 [Example E105, 3-(4-(3,8-diazabicyclo[3.2.1]octan-3-yl)-6-chloro-8-fluoro-2-(((2R,7aS)-2-fluorotetrahydro-1H-pyrrolizin-7a(5H)-yl)methoxy)quinazolin-7-yl)-5-chloro-4-(trifluoromethyl)phenol]",< 50
8,"N#Cc1cc(N)nc(-c2c(Cl)cc3c(N4CC5CCC(C4)N5)nc(OC[C@@]45CCCN4C[C@H](F)C5)nc3c2F)c1C(F)(F)F [Example E109, 2-(4-(3,8-diazabicyclo[3.2.1]octan-3-yl)-6-chloro-8-fluoro-2-(((2R,7aS)-2-fluorotetrahydro-1H-pyrrolizin-7a(5H)-yl)methoxy)quinazolin-7-yl)-6-amino-3-(trifluoromethyl)isonicotinonitrile]",< 50
9,"Oc1cc(F)c(C(F)(F)F)c(-c2c(F)cc3c(N4CC5CCC(C4)N5)nc(OC[C@@]45CCCN4C[C@H](F)C5)nc3c2F)c1 [Example E110, 3-(4-(3,8-diazabicyclo[3.2.1]octan-3-yl)-6,8-difluoro-2-(((2R,7aS)-2-fluorotetrahydro-1H-pyrrolizin-7a(5H)-yl)methoxy)quinazolin-7-yl)-5-fluoro-4-(trifluoromethyl)phenol]",< 50

# Second part, the compound after the results:
row,IC50 [nM],SMILES
1,< 50,"Cc1cc(N)nc(-c2c(SC(F)(F)F)cc3c(N4CC5CCC(C4)N5)nc(OC[C@@]45CCCN4C[C@H](F)C5)nc3c2F)c1C(F)(F)F [Example E92, 6-(4-(3,8-diazabicyclo[3.2.1]octan-3-yl)-8-fluoro-2-(((2R,7aS)-2-fluorotetrahydro-1H-pyrrolizin-7a(5H)-yl)methoxy)-6-((trifluoromethyl)thio)quinazolin-7-yl)-4-methyl-5-(trifluoromethyl)pyridin-2-amine]"
2,< 50,"Nc1nc2c(-c3c(SC(F)(F)F)cc4c(N5CC6CCC(C5)N6)nc(OC[C@@]56CCCN5C[C@H](F)C6)nc4c3F)ccc(F)c2s1 [Example E94, 4-(4-(3,8-diazabicyclo[3.2.1]octan-3-yl)-8-fluoro-2-(((2R,7aS)-2-fluorotetrahydro-1H-pyrrolizin-7a(5H)-yl)methoxy)-6-((trifluoromethyl)thio)quinazolin-7-yl)-7-fluorobenzo[d]thiazol-2-amine]"
3,< 50,Cc1cc(N)nc(-c2c(Cl)cc3c(N4C5CCC4CNC5)nc(OC[C@@]45CCCN4C[C@H](F)C5)nc3c2F)c1C(F)(F)F [Example E96]
4,< 50,"COCCCNC1C[C@H]2CC[C@@H]1N2c1nc(OC[C@@]23CCCN2C[C@H](F)C3)nc2c(F)c(-c3ccc(F)c4sc(N)nc34)c(C(F)(F)F)cc12 (stereo partly drawn) [Example E97, 7-fluoro-4-(8-fluoro-2-(((2R,7aS)-2-fluorotetrahydro-1H-pyrrolizin-7a(5H)-yl)methoxy)-4-((1S,4R)-2-((3-methoxypropyl)amino)-7-azabicyclo [2.2.1]heptan-7-yl)-6-(trifluoromethyl)quinazolin-7-yl) benzo[d]thiazol-2-amine]"
5,< 50,"Cc1cc(N)nc(-c2c(C(F)F)cc3c(N4CC5CCC(C4)N5)nc(OC[C@@]45CCCN4C[C@H](F)C5)nc3c2F)c1C(F)(F)F [Example E100, 6-(4-(3,8-diazabicyclo[3.2.1]octan-3-yl)-6-(difluoromethyl)-8-fluoro-2-(((2R,7aS)-2-fluorotetrahydro-1H-pyrrolizin-7a(5H)-yl)methoxy)quinazolin-7-yl)-4-methyl-5-(trifluoromethyl)pyridin-2-amine]"
6,< 50,"Nc1nc2c(-c3c(C(F)(F)F)cc4c(N5C6CCC5CNC6)nc(OC[C@@]56CCCN5C[C@H](F)C6)nc4c3Cl)ccc(F)c2s1 [Example E101, 4-(4-(3,8-diazabicyclo[3.2.1]octan-8-yl)-8-chloro-2-(((2R,7aS)-2-fluorotetrahydro-1H-pyrrolizin-7a(5H)-yl)methoxy)-6-(trifluoromethyl)quinazolin-7-yl)-7-fluorobenzo[d]thiazol-2-amine]"
7,< 50,"Nc1cc(Cl)c(C(F)(F)F)c(-c2c(Cl)cc3c(N4C5CCC4CNC5)nc(OC[C@@]45CCCN4C[C@H](F)C5)nc3c2F)n1 [Example E102, 6-(4-(3,8-diazabicyclo[3.2.1]octan-8-yl)-6-chloro-8-fluoro-2-(((2R,7aS)-2-fluorotetrahydro-1H-pyrrolizin-7a(5H)-yl)methoxy)quinazolin-7-yl)-4-chloro-5-(trifluoromethyl)pyridin-2-amine]"
8,< 50,"CN1C[C@H](F)C[C@]1(C)COc1nc(N2CC3CCC(C2)N3)c2cc(C(F)(F)F)c(-c3ccc(F)c4sc(N)nc34)c(F)c2n1 [Example E103, 4-(4-(3,8-diazabicyclo[3.2.1]octan-3-yl)-8-fluoro-2-(((2R,4R)-4-fluoro-1,2-dimethylpyrrolidin-2-yl)methoxy)-6-(trifluoromethyl)quinazolin-7-yl)-7-fluorobenzo [d]thiazol-2-amine]"
9,< 50,"N#Cc1c(N)sc2c(F)ccc(-c3c(Cl)cc4c(N5CC6CCC(C5)N6)nc(OC[C@@]56CCCN5C[C@H](F)C6)nc4c3F)c12 [Example E106, 4-(4-(3,8-diazabicyclo[3.2.1]octan-3-yl)-6-chloro-8-fluoro-2-(((2R,7aS)-2-fluorotetrahydro-1H-pyrrolizin-7a(5H)-yl)methoxy)quinazolin-7-yl)-2-amino-7-fluorobenzo[b]thiophene-3-carbonitrile]"
10,< 50,"Nc1cc(Cl)c(C(F)(F)F)c(-c2c(Cl)cc3c(N4C5CNCC4COC5)nc(OC[C@@]45CCCN4C[C@H](F)C5)nc3c2F)n1 [Example E107, 6-(4-(3-oxa-7,9-diazabicyclo[3.3.1]nonan-9-yl)-6-chloro-8-fluoro-2-(((2R,7aS)-2-fluorotetrahydro-1H-pyrrolizin-7a(5H)-yl)methoxy)quinazolin-7-yl)-4-chloro-5-(trifluoromethyl)pyridin-2-amine]"
11,< 50,"C#Cc1cc(N)nc(-c2c(Cl)cc3c(N4CC5CCC(C4)N5)nc(OC[C@@]45CCCN4C[C@H](F)C5)nc3c2F)c1C(F)(F)F [Example E108, 6-(4-(3,8-diazabicyclo[3.2.1]octan-3-yl)-6-chloro-8-fluoro-2-(((2R,7aS)-2-fluorotetrahydro-1H-pyrrolizin-7a(5H)-yl)methoxy)quinazolin-7-yl)-4-ethynyl-5-(trifluoromethyl)pyridin-2-aminp]"
12,< 50,"CN1C[C@H](F)C[C@H]1COc1nc(N2CC3CCC(C2)N3)c2cc(C(F)(F)F)c(-c3ccc(F)c4sc(N)c(C#N)c34)c(F)c2n1 [Example E111, 4-(4-(3,8-diazabicyclo[3.2.1]octan-3-yl)-8-fluoro-2-(((2S,4R)-4-fluoro-1-methylpyrrolidin-2-yl)methoxy)-6-(trifluoromethyl)quinazolin-7-yl)-2-amino-7-fluoro benzo[b]thiophene-3-carbonitrile]"
13,< 50,"Cc1nc(N)nc(-c2c(Cl)cc3c(N4CC5CCC(C4)N5)nc(OC[C@@]45CCCN4C[C@H](F)C5)nc3c2F)c1C(F)(F)F [Example E112, 4-(4-(3,8-diazabicyclo[3.2.1]octan-3-yl)-6-chloro-8-fluoro-2-(((2R,7aS)-2-fluorotetrahydro-1H-pyrrolizin-7a(5H)-yl)methoxy)quinazolin-7-yl)-6-methyl-5-(trifluoromethyl)pyrimidin-2-amine]"
